# Assay results from ChEMBL document CHEMBL4732190, “Identification of Potent and Long-Acting Single-Chain Peptide Mimetics of Human Relaxin-2 for Cardiovascular Diseases” (J Med Chem, 2021).
# How the values were obtained:
# Relaxin receptor 1 [1] = target: T1, Relaxin receptor 1 (Homo sapiens, UniProt Q9HBX9); test: Agonist activity at RXFP1 endogenously expressed in human OVCAR-5 cells assessed as increase in IBMX-induced cAMP accumulation pretreated with IBMX for 40 mins followed by compound addition and measured after 30 mins by HTRF assay; format: functional, cell-based
# T1 sequence (Q9HBX9 whole entry): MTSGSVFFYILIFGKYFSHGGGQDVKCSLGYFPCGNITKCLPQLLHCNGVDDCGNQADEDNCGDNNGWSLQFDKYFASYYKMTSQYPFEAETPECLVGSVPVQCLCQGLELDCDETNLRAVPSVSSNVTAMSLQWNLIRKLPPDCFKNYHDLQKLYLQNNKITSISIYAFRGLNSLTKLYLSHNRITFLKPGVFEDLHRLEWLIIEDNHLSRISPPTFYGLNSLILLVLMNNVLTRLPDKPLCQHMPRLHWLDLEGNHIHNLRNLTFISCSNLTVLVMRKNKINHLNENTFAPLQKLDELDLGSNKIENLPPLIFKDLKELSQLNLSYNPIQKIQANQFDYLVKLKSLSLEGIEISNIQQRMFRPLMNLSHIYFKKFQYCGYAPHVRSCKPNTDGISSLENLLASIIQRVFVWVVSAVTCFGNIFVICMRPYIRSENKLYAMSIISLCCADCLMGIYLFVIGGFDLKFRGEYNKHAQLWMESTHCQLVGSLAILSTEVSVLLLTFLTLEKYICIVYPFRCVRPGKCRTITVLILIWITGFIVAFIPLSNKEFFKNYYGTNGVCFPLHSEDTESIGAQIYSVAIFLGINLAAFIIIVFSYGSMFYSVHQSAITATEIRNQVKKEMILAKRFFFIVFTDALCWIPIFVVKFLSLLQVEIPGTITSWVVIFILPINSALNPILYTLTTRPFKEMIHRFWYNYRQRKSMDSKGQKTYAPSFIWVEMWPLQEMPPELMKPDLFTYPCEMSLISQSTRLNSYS
# [2] = Positive chronotropic activity in pithed Sprague-Dawley rat assessed as increase in heart rate at 10 microg/kg, iv administered as bolus dose recorded over 60 mins relative to control; format: ADME, organism-based; details: in vivo, 0.01 mg/kg, 1 h, dose 10 µg/kg
# Relaxin receptor 1 [3] = target: T1, Relaxin receptor 1; test: Displacement of Eu3+-labelled H2 relaxin from human RXFP1 expressed in human HEK-293T cells in presence of 10 % FCS by competition binding assay; format: cell-based
# [4] = target: T2, Relaxin receptor 1 (Rattus norvegicus) (UniProt Q6R6I6); test: Agonist activity at rat RXFP1 expressed in human […] cells assessed as increase in IBMX-induced cAMP accumulation pretreated with IBMX for 40 mins followed by compound addition and measured after 30 mins by HTRF assay relative to control; format: cell-based; details: HEK293, filed as agonist
# T2 sequence (whole entry): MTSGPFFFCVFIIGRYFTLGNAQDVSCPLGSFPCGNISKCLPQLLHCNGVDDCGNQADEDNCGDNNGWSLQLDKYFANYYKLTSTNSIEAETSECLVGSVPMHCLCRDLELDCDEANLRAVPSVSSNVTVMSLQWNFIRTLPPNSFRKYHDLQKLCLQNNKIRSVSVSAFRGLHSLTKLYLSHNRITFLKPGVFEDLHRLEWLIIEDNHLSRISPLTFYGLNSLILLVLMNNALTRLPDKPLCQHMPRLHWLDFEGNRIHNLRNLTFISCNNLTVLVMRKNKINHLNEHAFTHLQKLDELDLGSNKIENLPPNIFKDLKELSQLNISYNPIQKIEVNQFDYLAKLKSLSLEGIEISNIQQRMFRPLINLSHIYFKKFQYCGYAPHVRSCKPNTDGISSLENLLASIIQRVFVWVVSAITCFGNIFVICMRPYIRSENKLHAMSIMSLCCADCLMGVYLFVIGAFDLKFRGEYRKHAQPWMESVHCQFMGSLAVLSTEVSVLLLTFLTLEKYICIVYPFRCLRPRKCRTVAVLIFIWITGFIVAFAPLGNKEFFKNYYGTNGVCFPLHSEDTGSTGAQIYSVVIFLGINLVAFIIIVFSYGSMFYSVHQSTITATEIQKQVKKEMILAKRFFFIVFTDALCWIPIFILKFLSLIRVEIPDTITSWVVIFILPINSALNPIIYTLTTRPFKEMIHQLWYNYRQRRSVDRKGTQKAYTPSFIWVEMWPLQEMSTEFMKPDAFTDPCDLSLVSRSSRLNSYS
# Relaxin receptor 1 [5] = target: T1, Relaxin receptor 1; test: Agonist activity at human RXFP1 expressed in human HEK-293T cells co-transfected with pCRE beta-galactosidase reporter plasmid assessed as […] of IBMX-induced cAMP accumulation incubated for 30 mins by HTRF assay; format: functional, cell-based
# Relaxin receptor 1 [6] = target: T3, Relaxin receptor 1 (Rattus norvegicus, UniProt Q6R6I6); test: Agonist activity at rat RXFP1 expressed in human […] cells assessed as increase in IBMX-induced cAMP accumulation pretreated with IBMX for 40 mins followed by compound addition and measured after 30 mins by HTRF assay; format: cell-based, HEK293
# T3 sequence (Q6R6I6 whole entry): T2 sequence (whole entry)
# [7] = Half life in Sprague-Dawley rat at 1 mg/kg, iv measured upto 72 hrs by LC-HRMS analysis; format: ADME, organism-based; details: in vivo
# [8] = target: T4, Relaxin receptor 1 (Homo sapiens) (UniProt Q9HBX9); test: Agonist activity at RXFP1 endogenously expressed in human OVCAR-5 cells assessed as increase in IBMX-induced cAMP accumulation pretreated with IBMX for 40 mins followed by compound addition and measured after 30 mins by HTRF assay relative to relaxin; format: functional, cell-based; details: filed as agonist
# T4 sequence (whole entry): T1 sequence (Q9HBX9 whole entry)
smiles,measurement,setting,value
CC[C@H](C)[C@@H]1NC(=O)[C@H](C)NC(=O)[C@H]([C@@H](C)CC)NC(=O)[C@H](CCC(N)=O)NC(=O)[C@H](C)NC(=O)[C@H](CCCNC(=N)N)NC(=O)[C@H](C(C)C)NC(=O)[C@H](CC(C)C)NC(=O)[C@H](CCC(=O)O)NC(=O)[C@H](CCCNC(=N)N)NC(=O)CNC(=O)[C@@H](NC(=O)[C@H](CC(C)C)NC(=O)[C@H](CCCCN)NC(=O)[C@@H](NC(=O)[C@@H](NC(=O)[C@H](CCC(=O)O)NC(=O)[C@H](CCC(=O)O)NC(=O)[C@H](CCSC)NC(=O)[C@H](Cc2c[nH]c3ccccc23)NC(=O)[C@H](CO)NC(=O)[C@@H](N)CC(=O)O)C(C)C)[C@@H](C)CC)CSSC[C@@H]2NC(=O)[C@@H](NC(=O)[C@H](CCCCN)NC(=O)[C@H](CC(N)=O)NC(=O)[C@H](C)NC(=O)[C@H](CC(C)C)NC(=O)[C@H](C)NC(=O)[C@H](CO)NC(=O)[C@H](Cc3ccc(O)cc3)NC(=O)[C@@H](N)CC(C)C)CSCCSC[C@H](NC(=O)CNC(=O)[C@H](C(C)C)NC(=O)[C@H](Cc3cnc[nH]3)NC2=O)C(=O)N[C@@H]([C@@H](C)O)C(=O)N[C@@H](CCCCN)C(=O)N[C@@H](CCCNC(=N)N)C(=O)N[C@@H](CO)C(=O)N[C@@H](CC(C)C)C(=O)N[C@@H](C)C(=O)N[C@@H](CCCNC(=N)N)C(=O)N[C@@H](Cc2ccccc2)C(=O)NC(C(=O)O)CSSC[C@@H](C(=O)NCC(=O)N[C@@H](CCSC)C(=O)N[C@@H](CO)C(=O)N[C@H](C(=O)N[C@@H](Cc2c[nH]c3ccccc23)C(=O)N[C@@H](CO)C(=O)O)[C@@H](C)O)NC1=O (stereo partly drawn),EC50,Relaxin receptor 1 [1],420 pM
same,Activity,[2],60%
same,Ki,Relaxin receptor 1 [3],1100 pM
same,Emax,[4],100%
same,EC50,Relaxin receptor 1 [5],32.4 pM
same,EC50,Relaxin receptor 1 [6],500 pM
same,half-life,[7],27.6 min
same,Emax,[8],100%
